Measurements from US20250145585A1, “HETEROCYCLIC INHIBITORS OF IGF-1R FOR TREATMENT OF DISEASE” (HORIZON THERAPEUTICS IRELAND DAC, priority 2023, published 2025).

Target: T1, IGF-1R (Homo sapiens, UniProt P08069)
T1 construct: expressed in transfected cells
Assay: Example B-2: IGF-1R Assay (PathHunter cell lines, EC80 agonist challenge, chemiluminescent detection)
Type: cell-based
Details: PathHunter cells, compound 60 minutes at 37° C., EC80 agonist 3 hours; read-out: IC50, Biological Activity against IGF-1R (Table B2)
Procedure, shortened: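 PathHunter cells were pre-incubated with compound for 60 min at 37° C (1% vehicle), then challenged with EC80 agonist for 3 h at room temperature. Chemiluminescent detection after 1 h gave % inhibition relative to EC80 and vehicle controls, from which IC50 was derived.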

T1 sequence (P08069 31-1367): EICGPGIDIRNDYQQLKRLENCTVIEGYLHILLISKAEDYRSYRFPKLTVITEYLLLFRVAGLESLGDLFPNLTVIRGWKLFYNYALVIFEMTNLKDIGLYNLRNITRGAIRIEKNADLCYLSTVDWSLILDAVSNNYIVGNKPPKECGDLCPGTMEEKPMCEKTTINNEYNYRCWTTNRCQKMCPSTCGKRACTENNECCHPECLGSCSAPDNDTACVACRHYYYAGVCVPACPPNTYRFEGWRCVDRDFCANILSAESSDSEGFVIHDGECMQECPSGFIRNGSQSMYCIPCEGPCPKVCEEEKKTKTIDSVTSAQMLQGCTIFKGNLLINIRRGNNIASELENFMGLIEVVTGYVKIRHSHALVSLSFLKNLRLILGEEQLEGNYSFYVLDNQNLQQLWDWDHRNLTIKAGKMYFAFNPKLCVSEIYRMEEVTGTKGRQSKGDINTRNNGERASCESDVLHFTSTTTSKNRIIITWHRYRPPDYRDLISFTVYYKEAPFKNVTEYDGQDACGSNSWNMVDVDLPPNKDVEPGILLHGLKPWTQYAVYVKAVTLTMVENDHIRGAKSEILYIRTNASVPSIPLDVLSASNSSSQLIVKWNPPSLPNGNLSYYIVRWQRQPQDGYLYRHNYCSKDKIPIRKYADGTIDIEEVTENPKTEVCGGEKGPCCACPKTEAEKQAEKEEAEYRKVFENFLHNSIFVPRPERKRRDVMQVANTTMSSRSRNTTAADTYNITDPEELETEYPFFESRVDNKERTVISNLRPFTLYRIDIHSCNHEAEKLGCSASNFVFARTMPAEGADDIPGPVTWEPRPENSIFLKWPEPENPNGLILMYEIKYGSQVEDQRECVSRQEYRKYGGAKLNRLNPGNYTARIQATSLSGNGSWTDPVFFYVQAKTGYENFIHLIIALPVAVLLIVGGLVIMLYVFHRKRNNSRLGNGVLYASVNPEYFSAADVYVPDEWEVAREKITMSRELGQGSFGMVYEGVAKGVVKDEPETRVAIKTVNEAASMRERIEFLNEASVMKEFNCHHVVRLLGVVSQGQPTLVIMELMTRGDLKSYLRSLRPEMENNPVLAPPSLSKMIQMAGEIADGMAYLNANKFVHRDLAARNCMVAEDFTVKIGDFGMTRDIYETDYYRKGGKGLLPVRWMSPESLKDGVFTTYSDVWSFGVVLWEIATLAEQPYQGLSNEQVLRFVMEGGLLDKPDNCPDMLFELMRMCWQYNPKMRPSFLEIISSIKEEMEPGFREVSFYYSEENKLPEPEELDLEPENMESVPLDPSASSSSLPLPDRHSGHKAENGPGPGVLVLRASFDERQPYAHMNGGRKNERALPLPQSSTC

IC50	Compound
500 to 2000 nM	C[C@H](CC#N)Nc1cc(CN2C(=O)N(c3ccc(S(=O)(=O)C(F)(F)F)cc3)C(=O)C2(C)C)ccn1 [Compound 331, (R)-3-((4-((5,5-dimethyl-2,4-dioxo-3-(4-((trifluoromethyl)sulfonyl)phenyl)imidazolidin-1-yl)methyl)pyridin-2-yl)amino)butanenitrile]
2000 to 10000 nM	CN1CCC(Nc2cc(CN3C(=O)N(c4ccc(S(=O)(=O)C(F)(F)F)cc4)C(=O)C3(C)C)ccn2)C1=O (stereo not shown) [Compound 332, 5,5-dimethyl-1-((2-((1-methyl-2-oxopyrrolidin-3-yl)amino)pyridin-4-yl)methyl)-3-(4-((trifluoromethyl)sulfonyl)phenyl) imidazolidine-2,4-dione]
500 to 2000 nM	CC1(C)C(=O)N(c2ccc(S(=O)(=O)C(F)(F)F)cc2)C(=O)N1Cc1ccnc(NC2CCNC(=O)C2)c1 (stereo not shown) [Compound 333, 5,5-dimethyl-1-((2-((2-oxopiperidin-4-yl)amino)pyridin-4-yl)methyl)-3-(4-((trifluoromethyl)sulfonyl)phenyl) imidazolidine-2,4-dione]
500 to 2000 nM	CC1(C)C(=O)N(c2ccc(S(=O)(=O)C(F)(F)F)cc2)C(=O)N1Cc1ccnc(N[C@H]2CCOC[C@@H]2F)c1 [Compound 334, 1-((2-(((3R,4S)-3-fluorotetrahydro-2H-pyran-4-yl)amino)pyridin-4-yl)methyl)-5,5-dimethyl-3-(4-((trifluoromethyl)sulfonyl)phenyl) imidazolidine-2,4-dione]
500 to 2000 nM	CC1(C)C(=O)N(c2ccc(S(=O)(=O)C(F)(F)F)cc2)C(=O)N1Cc1ccnc(N[C@@H]2[C@@H]3COC[C@@H]32)c1 [Compound 335, 1-((2-(((1R,5S,6s)-3-oxabicyclo[3.1.0]hexan-6-yl)amino)pyridin-4-yl)methyl)-5,5-dimethyl-3-(4-((trifluoromethyl)sulfonyl)phenyl) imidazolidine-2,4-dione]
500 to 2000 nM	CC(CF)Nc1cc(CN2C(=O)N(c3ccc(S(=O)(=O)C(F)(F)F)cc3)C(=O)C2(C)C)ccn1 (stereo not shown) [Compound 336, 1-((2-((1-fluoropropan-2-yl)amino)pyridin-4-yl)methyl)-5,5-dimethyl-3-(4-((trifluoromethyl)sulfonyl)phenyl) imidazolidine-2,4-dione]
> 10000 nM	CC1(C)C(=O)N(c2ccc(S(C)(=O)=O)cc2)C(=O)N1Cc1ccnc(N[C@H]2[C@@H]3COC[C@@H]32)c1 [Compound 337, 1-((2-(((1R,SS,6r)-3-oxabicyclo[3.1.0]hexan-6-yl)amino)pyridin-4-yl)methyl)-5,5-dimethyl-3-(4-(methylsulfonyl)phenyl) imidazolidine-2,4-dione]
≤ 500 nM	CO[C@H](C)CNc1cc(CN2C(=O)N(c3ccc(S(=O)(=O)C(F)(F)F)cc3)C(=O)C2(C)C)ccn1 [Compound 338, (R)-1-((2-((2-methoxypropyl)amino)pyridin-4-yl)methyl)-5,5-dimethyl-3-(4-((trifluoromethyl)sulfonyl)phenyl) imidazolidine-2,4-dione]
500 to 2000 nM	C[C@H](Nc1cc(CN2C(=O)N(c3ccc(S(=O)(=O)C(F)(F)F)cc3)C(=O)C2(C)C)ccn1)[C@@H]1CCCO1 [Compound 339, 5,5-dimethyl-1-((2-(((S)-1-((S)-tetrahydrofuran-2-yl)ethyl)amino)pyridin-4-yl)methyl)-3-(4-((trifluoromethyl)sulfonyl)phenyl) imidazolidine-2,4-dione]
2000 to 10000 nM	C[C@H](Nc1cc(CN2C(=O)N(c3ccc(S(=O)(=O)C(F)(F)F)cc3)C(=O)C2(C)C)ccn1)[C@H]1CCCO1 [Compound 340, 5,5-dimethyl-1-((2-(((S)-1-((R)-tetrahydrofuran-2-yl)ethyl)amino)pyridin-4-yl)methyl)-3-(4-((trifluoromethyl)sulfonyl)phenyl) imidazolidine-2,4-dione]
500 to 2000 nM	C[C@@H](Nc1cc(CN2C(=O)N(c3ccc(S(=O)(=O)C(F)(F)F)cc3)C(=O)C2(C)C)ccn1)[C@@H]1CCCO1 [Compound 341, 5,5-dimethyl-1-((2-(((R)-1-((S)-tetrahydrofuran-2-yl)ethyl)amino)pyridin-4-yl)methyl)-3-(4-((trifluoromethyl)sulfonyl)phenyl) imidazolidine-2,4-dione]
2000 to 10000 nM	C[C@@H](Nc1cc(CN2C(=O)N(c3ccc(S(=O)(=O)C(F)(F)F)cc3)C(=O)C2(C)C)ccn1)[C@H]1CCCO1 [Compound 342, 5,5-dimethyl-1-((2-(((R)-1-((R)-tetrahydrofuran-2-yl)ethyl)amino)pyridin-4-yl)methyl)-3-(4-((trifluoromethyl)sulfonyl)phenyl) imidazolidine-2,4-dione]
2000 to 10000 nM	CC1(C)C(=O)N(c2ccc(S(=O)(=O)C(F)(F)F)cc2)C(=O)N1Cc1ccnc(N[C@H]2CCOCC2(F)F)c1 [Compound 343, (S)-1-((2-((3,3-difluorotetrahydro-2H-pyran-4-yl)amino)pyridin-4-yl)methyl)-5,5-dimethyl-3-(4-((trifluoromethyl)sulfonyl)phenyl) imidazolidine-2,4-dione]
≤ 500 nM	Cn1cc(CNc2cc(CN3C(=O)N(c4ccc(S(=O)(=O)C(F)(F)F)cc4)C(=O)C3(C)C)ccn2)cn1 [Compound 344, 5,5-dimethyl-1-((2-(((1-methyl-1H-pyrazol-4-yl)methyl)amino)pyridin-4-yl)methyl)-3-(4-((trifluoromethyl)sulfonyl)phenyl) imidazolidine-2,4-dione]
500 to 2000 nM	CC(C)Nc1cc(CN2C(=O)N(c3ccc(S(=O)(=O)C4CC4)cc3)C(=O)C2(C)C)ccn1 [Compound 353, 3-(4-(cyclopropylsulfonyl)phenyl)-1-((2-(isopropylamino)pyridin-4-yl)methyl)-5,5-dimethylimidazolidine-2,4-dione]
500 to 2000 nM	CC(C)Nc1cc(CN2C(=O)N(c3ccc(S(=O)(=O)C(C)(C)C)cc3)C(=O)C2(C)C)ccn1 [Compound 354, 3-(4-(tert-butylsulfonyl)phenyl)-1-((2-(isopropylamino)pyridin-4-yl)methyl)-5,5-dimethylimidazolidine-2,4-dione]
≤ 500 nM	CC1(Nc2cc(CN3C(=O)N(c4ccc(S(=O)(=O)C(F)(F)F)cc4)C(=O)C3(C)C)ccn2)CC1 [Compound 355, 5,5-dimethyl-1-((2-((1-methylcyclopropyl)amino)pyridin-4-yl)methyl)-3-(4-((trifluoromethyl)sulfonyl)phenyl)imidazolidine-2,4-dione]
≤ 500 nM	CC1(C)C(=O)N(c2ccc(S(=O)(=O)C(F)(F)F)cc2)C(=O)N1Cc1ccnc(NC2CC2)c1 [Compound 356, 1-((2-(cyclopropylamino)pyridin-4-yl)methyl)-5,5-dimethyl-3-(4-((trifluoromethyl)sulfonyl)phenyl)imidazolidine-2,4-dione]
≤ 500 nM	CC1(C)C(=O)N(c2ccc(S(=O)(=O)C(F)(F)F)cc2)C(=O)N1Cc1ccnc(N[C@H]2C[C@H]2F)c1 [Compound 357, 1-((2-(((1S,2R)-2-fluorocyclopropyl)amino)pyridin-4-yl)methyl)-5,5-dimethyl-3-(4-((trifluoromethyl)sulfonyl)phenyl)imidazolidine-2,4-dione]
500 to 2000 nM	CC(C)(C)c1ccc(N2C(=O)C(C)(C)N(Cc3ccnc4[nH]ccc34)C2=S)cc1 [Compound 407, 1-((1H-pyrrolo[2,3-b]pyridin-4-yl)methyl)-3-(4-(tert-butyl)phenyl)-5,5-dimethyl-2-thioxoimidazolidin-4-one]
≤ 500 nM	[2H]C([2H])([2H])Nc1cc(CN2C(=O)N(c3ccc(S(=O)(=O)C(F)(F)F)cc3)C(=O)C2(C)C)ccn1 [Compound 408]

Target: T1, IGF-1R
Assay: Example B-1: IGF-1R Assay (PC3 cells stimulated with IGF1, AlphaLISA on cell lysates)
Type: cell-based
Details: compound two hours, IGF1 200 ng/mL for 30 min, read-out: IC50, Biological Activity against IGF-1R (Table B1)
Experimental: 50K PC3 cells were seeded on day 1 in 50 μL of media in 96-well plate and incubated overnight at 37° C., 5% CO2. On day 2, all cells were expected to be at 80-90% confluency. Cells were starved for two hours by changing the media to 90 μL of EMEM serum-free media and incubated for 2 hours. Next, cells were treated with 10 μL of 10× concentrated and 3× serially diluted compounds for two hours. It makes 1× of compounds in 100 μL media. This was followed by stimulation of cells with 11×IGF1 for 30 min in 10 μL of serum-free EMEM media at the final concentration of 200 ng/mL.
The media was removed and replaced by 50 μL of 1× lysis buffer from the AlphaLISA kit (with 1× of cOmplete™ protease inhibitor). The plates were sealed, and cells were allowed to lyse for 10 min in the shaker before storing the plate at −20° C. until used. The AlphaLISA assay with processed cell lysates were performed as described in the protocol. Briefly, 10 μL of the undiluted sample were loaded to 384 well Optiplates and 5 μL of the acceptor mix (as described in the AlphaLISA kit) was added to each well. The plates were sealed and briefly vortexed followed by the incubation at RT for 3 hours. In the dark, 5 μL of donor mix was added to each well. All plates were sealed and stored at RT overnight. The plates were read in EnVision reader using standard AlphaLISA settings.
Compound activity was analyzed using CBIS data analysis suite (Cheminnovation, CA). Percentage inhibition was calculated using the following formula: % I-hibition=100%×(1−(mea−RLU of test sample−mean RLU of vehicle control)/(mean-RLU of EC80 control−mean RLU of vehicle control)). The activity for representative examples of the invention is shown in the following table, wherein A: IC50≤500 nM; B: 500 nM<IC50≤2 μM; C: 2 μM<IC50≤10 μM; D: IC50>10 μM.

IC50	Compound
≤ 500 nM	5,5-dimethyl-1-((2-((2-methyl- 3-oxoisoindolin-5- yl)amino)pyridin-4-yl)methyl)- 3-(4- ((trifluoromethyl)thio)phenyl) amidazolidine-2,4-dione [Compound 272]
≤ 500 nM	CC1(C)C(=O)N(c2ccc(SC(F)(F)F)cc2)C(=O)N1Cc1ccnc2[nH]cnc12 [Compound 2, 1-((3H-imidazo[4,5-b]pyridin-7-yl)methyl)-5,5-dimethyl-3-(4-((trifluoromethyl)thio)phenyl)imidazolidine-2,4-dione]
≤ 500 nM	CC1(C)C(=O)N(c2ccc(SC(F)(F)F)cc2)C(=O)N1Cc1ncnc2[nH]ccc12 [Compound 3, 1-((7H-pyrrolo[2,3-d]pyrimidin-4-yl)methyl)-5,5-dimethyl-3-(4-((trifluoromethyl)thio)phenyl)imidazolidine-2,4-dione]
≤ 500 nM	CC(C)(C)c1ccc(N2C(=O)N(Cc3ccnc4[nH]ccc34)C(C)(C)C2=O)cc1 [Compound 4]
